Measured values: patent publication US20230175195A1, “PLASMA COATING TREATMENT METHOD FOR INHIBITING BIOLOGICAL PATHOGEN TRANSFER” (MOLECULAR PLASMA GROUP S.A., priority 2020, published 2023)
Where two headings read alike, the source gives them in different places.

What was measured:
[1] = test system: Staphylococcus aureus (gram-positive); assay: Quantitative antibacterial activity test of treated materials (OECD guideline, ISO 22197/20743), gram-positive; format: cell-based, S. aureus ATCC6538P
[2] = test system: Escherichia coli (gram-negative); assay: Quantitative antibacterial activity test of treated materials (OECD guideline, ISO 22197/20743), gram-negative
Text: The coatings in the tests described below were obtained using a PlasmaSpot® by Molecular Plasma Technology, using a power around 100 W (but any power between 60-450 W can work), a voltage about 15 kV (but any voltage between 5 and 25 kV seems to work), a frequency about 60 kHz, plasma gas N2, (but also N2, He, Ar, even air and mixtures thereof can be used), a plasma gas flowabout 100 slm (but any plasma flow between 10 and 250 slm can be used), the precursor injected as aerosol (but a liquid precursor, gas precursor, a mixture of liquids, solutions, dispersions, etc . . . also work well), a working distance about 8 mm (but any working distance between 1 and 20 mm seems to work), a temperature about room temperature.
Further tests were performed to illustrate antibacterial behaviour. Tests were performed on a polypropylene nonwoven (PPNW) substrate having a density of 25 g/m^2, which is commonly used as the outer layer of a surgical face mask, and on the synthetic textile Tyvek®.
Droplets containing bacterial suspension are placed on the treated material and evaluated after an incubation period. After the incubation, the bacteria are recovered from the tested material by washing it with a recovery medium. This recovery medium is then analysed for presence of the pathogen by incubation of the recovery medium on agar plates.
The bacteriae used in the testing were Staphylococcus aureus (gram-positive) and Escherichia coli (gram-negative).
The test is based on the international standard given by OECD guidelines for testing of chemicals based on ISO standards 22197/20743: Quantitative method for evaluating antibacterial activity of porous and non-porous antibacterial treated materials.

[3] = test system: Bacteriophage MS2; assay: Viral load reduction test per ASTM E2721-16 with MS2 instead of Influenza A, on plasma-coated substrate; format: cell-based
[4] = plasma coating on PPNW substrate (polypropylene nonwoven, 25 g/m^2)
[5] = plasma coating of the precursor on Tyvek substrate, MS2 phages, LOD = limit of detection
[6] = plasma coating on synthetic textile substrate (Tyvek)

Row | Compound | % Gram+ bacteria reduced [1, 4] [%] | Gram+ log reduction [1, 4] | % Gram− bacteria reduced [2, 4] [%] | Gram− log reduction [2, 4] | LOG Reduction [3, 5] | % Gram+ bacteria reduced [1, 6] [%] | Gram+ log reduction [1, 6] | % Gram− bacteria reduced [2, 6] [%] | Gram− log reduction [2, 6] | LOG Reduction [3]
1 | PVP-I2 Poly(vinylpyrrolidone)-Iodine complex [reference compound] | >99.994 | >4.2 | >99.9996 | >5.4 |  |  |  |  |  | 
2 | Citric Acid | >99.995 | >4.3 | >99.999 | >5.0 | >5.0 (LOD) | >99.98 | >3.8 | 97.5 | 1.6 | 
3 | CCCCCCCCCCCCCCCCCC[N+](C)(C)CCC[Si](OC)(OC)OC.[Cl-] [SiQAM, Dimethyloctadecyl[3-(trimethoxysilyl)propyl] ammonium chloride] | >99.994 | >4.2 | >99.9996 | >5.4 | 1.56 | >99.95 | >3.3 | >98.7 | >1.9 | 
4 | Benzalkonium chloride | >99.994 | >4.2 | 99.9996 | 5.4 |  | >99.5 | >3.3 | 98.7 | 1.9 | >3.8 (LOD)
